Patent publication US20180136227A1, “Treatment and Diagnosis of Hereditary Xerocytosis” (Universite d'aix Marseille, priority 2015, published 2018)

Experiments:
[1] = system: control red blood cells; experiment: Osmotic fragility test in hypotonic saline, control red blood cells; details: for hemolysis induced before the osmotic test: blood incubation 25 hours, control red blood cells
[2] = system: control red blood cells with WT Gardos channels; experiment: Vanadate-induced K+ loss and water loss in control red blood cells; type: cell-based, human
Method: Red blood cell cation content and volume measurements: Freshly drawn blood was washed 4 times at room temperature in medium containing in mM: NaCl 147, KCl 5, MgSO4 2, CaCl2 1, Hepes 10, buffered with NaOH pH 7.4 (320 mOsm). […] A few minutes before sampling time, 400 μl of cell suspension was taken to fill 3 nylon tubes that were centrifuged for 10 minutes at 4° C., 20,000. g at the exact sampling time. The supernatant was collected for extracellular ion content measurements. The pellet of red cells was extracted and immediately weighted. Then, dry weight was measured after overnight heating (80° C.). Water content was calculated with a correction of 3.64% corresponding to trapped medium between packed cells. Intracellular ions were extracted from dried pellets by overnight incubation at 4° C. in 5 ml milliRho water (Millipore). Na^+ and K^+ were measured by flame spectroscopy with a PFP7 Jenway. Statistics: Mann and Whitney test was used to compare control versus patient or control versus inhibitor in red blood cell experiments.

[3] = Sickle Cell disease, Ataga et al., 2011; cited from earlier work

## Clc1ccccc1C(c1ccccc1)(c1ccccc1)n1cccn1 [TRAM-34, 1-[(2-Chlorophenyl)diphenylmethyl]-1H-pyrazole]
[1]; TRAM-34 10 μM
  hemolysis induced before the osmotic test: strong hemolysis
[2]; Homo sapiens, Erythrocyte, 1 h, read-out: inhibition of K+ loss
  inhibition at 10 µM: 97 ± 1%
[2]; TRAM-34 10 μM, 5 mM vanadate, red blood cells with WT Gardos channels
  effect on K+ loss and cell water loss: able to reduce

## NC(=O)C(c1ccccc1)(c1ccc(F)cc1)c1ccc(F)cc1 [Senicapoc, bis(4-fluorophenyl)phenyl acetamide]
[1]; Senicapoc 4 or 0.4 μM
  hemolysis induced before the osmotic test: not observed
[1]; Senicapoc 4 or 0.4 μM, blood stored 25 hours at 4° C., control
  effect on osmotic resistance: no effect
[2]; Homo sapiens, Erythrocyte, 1 h
  inhibition at 0.4 µM: 84 ± 4%
  inhibition at 4 µM: 95 ± 4%
[3]
  toxicity in phase III study: non-toxic
